According to patent US7976878B2, “Use of winter savory (Satureja montana) or the extracts thereof for the preparation of medicaments for the treatment of the premature ejaculation” (Indena S.p.A., priority 2004, dated 2011):
“Also recorded” adds a separate entry of the source.

Test system: Sprague-Dawley rats
Test: Copulatory activity (sexual behaviour) test in male rats with very short ejaculation latency
Format: in vivo, rat
Conditions: for ejaculation latency (EL) / intromission frequency (IF) / intromission latency (IL) / mount frequency (MF) / mount latency (ML) / postejaculatory interval (PEI): 45 min before test, mean ± SEM (n = 8-10)
Protocol: The resulting extract was solubilised in Tween 80 (10%) and water and administered to test animals through a gastric probe, in a volume of 5 ml/kg, at different doses, 45 minutes before the in vivo test. Sprague-Dawley rats were used, both males (weighing approx. 220 g) and females (weighing approx. 160 g), from Harlan Italy (Udine, Italy). The animals were housed under controlled temperature and humidity conditions (22±1° C., 60% humidity), with 12 hours inverted light-darkness cycle, with lights on at 7 a.m. Females were ovariectomized and subcutaneously injected with estradiol valerate (500 μg) and progesterone (2 mg) 48 hours after, to induce estrus. Male rats with very short ejaculation latency time were chosen through starting screening consisting of 7 pre-tests [A. Ågmo, Male rat sexual behavior, Brain Research Protocols 1: 203-209, 1997]. The resulting extract according to Example II or rosmarinic acid were solubilised in Tween 80 (10%) and water and administered to animals, by gastric probe, in a volume of 5 ml/kg, at different doses, 45 minutes before carrying out all the in vivo tests. Sexual behaviour was evaluated under quite conditions, with feeble red light, according to the standard procedure [A. Ågmo, Male rat sexual behavior, Brain Research Protocols 1: 203-209, 1997]. The main parameters recorded during the test were: 1) mount latency (ML); 2) intromission latency (IL); 3) ejaculation latency (EL); 4) postejaculatory interval (PEI); 5) mount frequency (MF); 6) intromission frequency (IF).

[1] = rosmarinic acid 10 mg/kg by gastric probe
[2] = rosmarinic acid 20 mg/kg by gastric probe

## O=C(/C=C/c1ccc(O)c(O)c1)O[C@H](Cc1ccc(O)c(O)c1)C(=O)O [Rosmarinic acid, rosmarinic acid]
[1]
  ejaculation latency (EL): 1282.2 ± 90.4 s
  intromission frequency (IF): 19.8 ± 1.2 n°
  intromission latency (IL): 393.9 ± 89.8 s
  mount frequency (MF): 1.6 ± 0.3 n°
  mount latency (ML): 382.4 ± 93.6 s
  postejaculatory interval (PEI): 548.5 ± 45.5 s
[2]
  ejaculation latency (EL): 1493.1 ± 81.9 s
  intromission frequency (IF): 27.3 ± 0.7 n°
  intromission latency (IL): 408.4 ± 48.6 s
  mount frequency (MF): 1.1 ± 0.1 n°
  mount latency (ML): 425.8 ± 83.2 s
  postejaculatory interval (PEI): 602.2 ± 102.4 s
Rosmarinic acid, doses of 10 and 20 mg/kg, same experimental conditions
  activity on copulatory activity / ejaculation latency compared with the extract (in words): equivalent activity to that of the extract; also recorded: same results
